Experimental data: patent publication US12285392B2, “Method for modulating metabolism” (Brightseed, Inc., priority 2018, dated 2025)

Columns and labels:
pH stability assessment = assay type: physicochemical; settings: pH 2, 7.4, 8.5 and 10, 37° C., 0.5 and 72 hours
Method: pH Stability Assessment. Individual stock solutions were prepared in DMSO at concentrations of 10 mg/mL. Four different buffer solutions were prepared to achieve solutions with a pH of 2, 7.4, 8.5 and 10. For each pH assay, 5 μL of stock solution was added to 245 μL of buffered solution to a 2 mL tube, vortexed and incubated in a 37° C. water bath. At each timepoint, 50 μL aliquots were taken, neutralized and analyzed via HPLC analysis using a DAD detector at 280 nm. The fold change of the peak area at 280 nm was analyzed for the initial and final timepoint, 0.5 and 72 hours, respectively.

[1] = Hepatic microsome stability assay, mouse; assay type: in vitro ADME; settings: mouse microsomes
Method: Hepatic Microsome Assay. Hepatic microsomes stability assays were performed in accordance with known methods (Peddibhotla, et al. (2013) ACS Med. Chem. Lett. 4:846-851). Briefly, 3 μL of 25 μM compound solution in acetonitrile were incubated with 123 μL of mouse, human or rat liver microsomes (Xenotech, Kansas City, Kans.). […] The microsomal concentrations used were 1.0 mg/mL. Compounds were incubated in microsomes for 0, 5, 15, 30 and 60 minutes. The reactions were stopped by the addition of ice cold ACN and the reaction mixtures were centrifuged at 10,000 g for 10 minutes before the supernatant was removed for analysis. A 10 μL portion of the resulting extract was injected on a Thermo HPLC system equipped with PAL CTC plate sampler (96-well plate), Dionex Ultimate 3000 binary pump (flow rate at 0.600 mL/min), Dionex Ultimate 3000 thermostatted column compartment (temperature at 40° C.), Thermo Endura Mass Spectrometer (ESI source), using a Thermo Scientific Accucore C18 (2.6 μM, 2.1×50 mm) column. A gradient was run starting at 95% H2O (0.1% formic acid) and 5% ACN (0.1% formic acid) during the first 0.5 min, then under gradient condition of 5-100% ACN (0.1% formic acid) from minute 0.5 to 3.5, finishing at 95% H2O (0.1% formic acid) and 5% ACN (0.1% formic acid) over 0.5 min, with another 1 min at 95:5 to re-equilibrate.

O=C(/C=C/c1ccc(O)c(O)c1)NCCc1ccc(O)cc1 [N-trans-caffeoyltyramine]
pH Stability (pH stability assessment): Acid Stable
% Remaining ([1]; 1 μM): 0.4%
% Remaining ([1]; 10 μM): 0.3%
